{
  "source": "patent US8148493B2",
  "about": "“Method for inhibiting “melanoma inhibitory activity” MIA” (Antisense Pharma GmbH, priority 2002, dated 2012)",
  "key": {"MIA": {"biological_target": "T1, MIA (Homo sapiens, UniProt Q16674)", "T1 sequence (Q16674 25-131)": "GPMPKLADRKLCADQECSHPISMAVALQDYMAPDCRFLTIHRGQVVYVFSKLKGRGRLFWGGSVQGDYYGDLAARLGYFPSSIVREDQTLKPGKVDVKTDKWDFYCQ", "assay": "Boyden Chamber assay, melanoma cell invasion with and without MIA", "type": "cell-based", "source_text": "Both in vitro and in vivo MIA expression levels strictly correlate with an highly invasive phenotype (Bosserhoff et al., 1996, J. Biol. Chem. 271, 490-495; Bosserhoff et al., 1999, J. of Pathology 187, 446-454). Further in vivo studies have shown the necessity of MIA for melanoma invasion and metastasis (Bosserhoff et al., 2001, Melanoma Res. 11, 417-421., Guba, et al., 2000, Br. J. Cancer 83, 1216-1222). We therefore aimed to design MIA-inhibitory peptides based on our experiments which identified fibronectin epitopes interacting with MIA (Stoll et al., 2001; EMBO J. 20: 340-349). Peptides derived from fibronectin which were shown previously to cross-react with MIA were tested in Boyden Chamber assays on their effect on melanoma cell invasion with and without MIA. […] In addition we tested several of the peptide sequences derived from phage display screenings and found peptide SEQ ID NO:16 to be a potential interesting candidate for therapeutic MIA-inhibition. […] We then tested the effect of peptides SEQ ID NO:16 and 22 on growth of metastasis in vivo using the B16/C57B16 model."}, "melanoma cells": {"tested_on": "melanoma cells", "assay": "Melanoma (tumor) cell attachment", "type": "cell-based"}, "B16 melanoma cells": {"tested_on": "B16 melanoma cells", "assay": "In vivo experimental metastasis assay, B16/C57Bl6 model", "conditions": "C57Bl6 mice, B16 cells i.v., peptide 550 μg/mouse every day, 18 days; for size of the lung tumor nodules: control 119.9±9.95; for number of black lung nodules of melanoma: control 193±13", "experimental": "To measure the effect of SEQ ID NO: 16 and SEQ ID NO:22 on the metastatic potential of B16 melanoma cells in vivo an experimental metastasis assay was used (Bosserhoff et al., 2001, Melanoma Res. 11, 417-421). Intravenous injections of monodispersed tumor cells (1×10^5 cells per animal) were performed into syngeneic C57BI6 mice (n=12 for every peptide as well as control). Peptides (550 μg/mouse) or PBS was injected every day. After 18 days the mice were sacrificed, the lungs removed, washed in PBS, fixed in formalin and the visible tumor nodules on the surface of the lungs were counted and the tumor areas measured."}},
  "data": [
    {"sequence": "TSLLISWDAPAVT (from phage display screening) [SEQ ID NO:23, fibronectin-derived peptide]", "values": [
      {"measurement": "effect on MIA function (melanoma cell invasion)", "setting": "MIA", "value": "block MIA function"},
      {"measurement": "effect on melanoma/tumor cell attachment", "setting": "melanoma cells", "value": "inhibit also tumor cell attachment"}
    ]},
    {"sequence": "RLTLLVLIMPAP (from phage display screening) [SEQ ID NO:16, do-decapeptide from phage display]", "values": [
      {"measurement": "size of the lung tumor nodules", "setting": "B16 melanoma cells", "value": "78.1±5.03"},
      {"measurement": "number of black lung nodules of melanoma", "setting": "B16 melanoma cells", "value": "198±19"},
      {"measurement": "effect on MIA function (melanoma cell invasion)", "setting": "MIA", "value": "strongly inhibited"},
      {"measurement": "effect on melanoma/tumor cell attachment", "setting": "melanoma cells", "value": "no effect"}
    ]},
    {"sequence": "ETTIVITWTPAPR (from phage display screening) [SEQ ID NO:22, fibronectin-derived peptide]", "values": [
      {"measurement": "size of the lung tumor nodules", "setting": "B16 melanoma cells", "value": "87.15±5.32"},
      {"measurement": "number of black lung nodules of melanoma", "setting": "B16 melanoma cells", "value": "249±26"},
      {"measurement": "effect on MIA function (melanoma cell invasion)", "setting": "MIA", "value": "block MIA function"}
    ]},
    {"sequence": "NSLLVSWQPPRAR (from phage display screening) [SEQ ID NO:24, fibronectin-derived peptide]", "values": [
      {"measurement": "effect on MIA function (melanoma cell invasion)", "setting": "MIA", "value": "block MIA function"},
      {"measurement": "effect on melanoma/tumor cell attachment", "setting": "melanoma cells", "value": "inhibit also tumor cell attachment"}
    ]}
  ]
}
